Patent publication US8273900B2, “Organic compounds” (Novartis AG, priority 2008, dated 2012)

Target: T1, human recombinant CRF-1 receptor (Homo sapiens, UniProt P34998)
T1 construct: expressed in transfected cells; host or cells: CHO cells (G418-selected)
T1 sequence (P34998 24-415): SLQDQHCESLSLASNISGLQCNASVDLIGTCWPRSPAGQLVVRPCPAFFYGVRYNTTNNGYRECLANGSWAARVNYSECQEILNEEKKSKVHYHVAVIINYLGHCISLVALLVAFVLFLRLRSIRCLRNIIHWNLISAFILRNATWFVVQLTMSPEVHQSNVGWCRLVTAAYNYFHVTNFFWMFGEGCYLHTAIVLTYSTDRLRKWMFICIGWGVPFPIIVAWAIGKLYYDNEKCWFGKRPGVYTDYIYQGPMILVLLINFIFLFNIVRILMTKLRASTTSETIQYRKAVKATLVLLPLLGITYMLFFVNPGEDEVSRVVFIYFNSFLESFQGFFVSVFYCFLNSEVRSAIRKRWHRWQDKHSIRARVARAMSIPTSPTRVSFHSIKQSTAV
Assay: CRF-1 receptor antagonism, HTRF cAMP assay in CHO cells in the presence of 1 nM CRF
Type: cell-based
Settings: CHO cells expressing human recombinant CRF-1; inhibition of the effect of 1 nM CRF on cAMP
Protocol: The CRF-1 or CRF-2α receptor antagonistic activity of the agents of the invention has been determined in vitro in the following assay:
Chinese hamster ovary (CHO) cells expressing either the human recombinant CRF-1 or CRF-2a receptors (Chen et al., Proc Natl Acad Sci USA 90, 8967-8971, 1993; Liaw et al., Endocrinology 137, 72-77, 1996) are propagated in Dulbecco's modified Eagle medium supplemented with 10% foetal calf serum, non-essential amino acids, 100 U/ml penicillin, 100 mg/l streptomycin and 1 g/l geneticin (G418). For cyclic AMP determinations the Homogeneous Time-Resolved Fluoresce (HTRF) cAMP dynamic 2 kit (Cisbio International, France) was used as per manufacturers' instructions. CHO cells, previously cryopreserved, were thawed, centrifuged for 7 mins at 1200 rpm and resuspended in serum free media, then pipetted out onto clear bottomed black tissue culture treated 384-well microtitre plates (Corning Inc, US) at 2,000 cells per well. Compounds of the invention, prepared in DMSO, and subsequently diluted 50 fold in assay buffer (1× Hanks balanced salt solution, 0.2% (w/v) bovine serum albumin, 1.7 mM isobutylmethylxanthine and 10 mM Hepes, pH 7.4) are then added onto the cell containing plate where a further 2 fold dilution is performed and incubated for 15 min. Following incubation, buffer containing a 5 times final concentration of agonist is added to the plate and incubated for 30 min. Finally, d2 dye labelled cAMP and cryptate labeled anti-cAMP antibody, both made in lysis buffer, are added to the plate followed by a settling period of 1 hour. During the settling period cAMP produced by the cells competes with the d2 labelled cAMP for the anti-cAMP cryptate. The plate is read on the Pherastar (BMG, Germany). Increasing levels of endogenous cAMP produced by cells can be followed by a decrease of fluorescent signal and vice versa. Values represented by a change in arbitrary fluorescence units are converted into cAMP concentrations by use of a standard curve the reagents for which are supplied with the kit. Antagonist dose response curves (1 nM-30 μM) are constructed in the presence of 1 nM CRF. IC50 values of antagonists are calculated by fitting the percent inhibition of the effect of CRF by increasing concentrations of the antagonists. The fit is performed using the nonlinear logistic function of the Activitybase software package v 5.4.5.27 (IDBS, UK).

Row | IC50 | SMILES
1 | 57 nM | Cc1[nH]nc(NC[C@H]2CC[C@H](NC(=O)c3cc(C(F)(F)F)ccc3Cl)CC2)c1-c1ccc(Cl)cc1 [Example 19.91, Trans-2-chloro-N-(4-((4-(4-chlorophenyl)-5-methyl-1H-pyrazol-3-ylamino)methyl)cyclohexyl)-5-(trifluoromethyl) benzamide]
2 | 23 nM | O=C(N[C@H]1CC[C@H](CNc2ccc(F)cn2)CC1)c1cc(C(F)(F)F)ccc1Cl [Example 19.2, Trans-2-chloro-N-(4-((5-fluoropyridin-2-ylamino)methyl)cyclohexyl)-5-(trifluoromethyl) benzamide]
3 | 53 nM | Cc1cccc2[nH]nc(NC[C@H]3CC[C@H](NC(=O)c4cc(C(F)(F)F)ccc4Cl)CC3)c12 [Example 19.65, Trans-2-chloro-N-(4-((4-methyl-1H-indazol-3-ylamino)methyl)cyclohexyl)-5-(trifluoromethyl) benzamide]
4 | 2200 nM | Cc1ccncc1NC[C@H]1CC[C@@H](NC(=O)c2cc(C(F)(F)F)ccc2Cl)CC1 [Example 14.1, Cis-2-chloro-N-((1s,4s)-4-((4-methylpyridin-3-ylamino)methyl)cyclohexyl)-5-(trifluoromethyl)benzamide]
5 | 31 nM | O=C(N[C@H]1CC[C@H](CNc2n[nH]c3c2CCCC3)CC1)c1cc(C(F)(F)F)ccc1Cl [Example 19.49, Trans-2-chloro-N-(4-((4,5,6,7-tetrahydro-1H-indazol-3-ylamino)methyl)cyclohexyl)-5-(trifluoromethyl) benzamide]
6 | 43 nM | CCc1[nH]nc(NC[C@H]2CC[C@H](NC(=O)c3cc(C(F)(F)F)ccc3Cl)CC2)c1C [Example 19.117, Trans-2-Chloro-N-{4-[(5-ethyl-4-methyl-1H-pyrazol-3-ylamino)-methyl]-cyclohexyl}-5-trifluoromethyl-benzamide]
7 | 80 nM | [2H]C([2H])([2H])c1ncc(NC[C@H]2CC[C@H](NC(=O)c3cc(C(F)(F)F)ccc3Cl)CC2)cc1Cl [Example 19.104, Trans-2-Chloro-N-{4-[(5-chloro-6-d3-methyl-pyridin-3-ylamino)-methyl]-cyclohexyl}-5-trifluoromethyl-benzamide]
8 | 13 nM | Cc1cc(NC[C@H]2CC[C@H](NC(=O)c3cc(C(F)(F)F)ccc3Cl)CC2)ncc1F [Example 19.26, Trans-2-chloro-N-(4-((5-fluoro-4-methylpyridin-2-ylamino)methyl)cyclohexyl)-5-(trifluoromethyl) benzamide]
9 | 52 nM | COc1ccc(Cl)c(NC[C@H]2CC[C@H](NC(=O)c3cc(C(F)(F)F)ccc3Cl)CC2)n1 [Example 19.98, Trans-2-Chloro-N-{4-[(3-chloro-6-methoxy-pyridin-2-ylamino)-methyl]-cyclohexyl}-5-trifluoromethyl-benzamide]
10 | 113 nM | Cc1nn(C[C@H]2CC[C@H](NC(=O)c3cc(C(F)(F)F)ccc3Cl)CC2)c(C)c1Cl [Example 21.8, 2-Chloro-N-[4-(4-chloro-3,5-dimethyl-pyrazol-1-ylmethyl)-cyclohexyl]-5-trifluoromethyl-benzamide]
11 | 34 nM | Cc1n[nH]c(NC[C@H]2CC[C@H](NC(=O)c3cc(C(F)(F)F)ccc3Cl)CC2)c1Cl [Example 19.114, Trans-2-Chloro-N-{4-[(4-chloro-5-methyl-2H-pyrazol-3-ylamino)-methyl]-cyclohexyl}-5-trifluoromethyl-benzamide]
12 | 69 nM | O=C(N[C@H]1CC[C@H](CNc2n[nH]c3cccnc23)CC1)c1cc(C(F)(F)F)ccc1Cl [Example 19.93, Trans-N-(4-((1H-pyrazolo [4,3-b]pyridin-3-ylamino)methyl)cyclohexyl)-2-chloro-5-(trifluoromethyl) benzamide]
13 | 143 nM | Cc1ncc(Cl)cc1C(=O)N[C@H]1CC[C@H](CNc2n[nH]c3c2CCCC3)CC1 [Example 19.55, Trans-5-chloro-2-methyl-N-(4-((4,5,6,7-tetrahydro-1H-indazol-3-ylamino)methyl)cyclohexyl) nicotinamide]
14 | 78 nM | CCCc1[nH]nc(NC[C@H]2CC[C@H](NC(=O)c3cc(C(F)(F)F)ccc3Cl)CC2)c1Br [Example 19.76, Trans-N-(4-((4-bromo-5-propyl-1H-pyrazol-3-ylamino)methyl)cyclohexyl)-2-chloro-5-(trifluoromethyl) benzamide]
15 | 66 nM | Cc1ncc(Cl)cc1C(=O)N[C@H]1CC[C@H](CNc2nc(C)c(C)s2)CC1 [Example 5.14, Trans-5-Chloro-N-{4-[(4,5-dimethyl-thiazol-2-ylamino)-methyl]-cyclohexyl}-2-methyl-nicotinamide]
16 | 187 nM | Cc1ncc(Cl)cc1C(=O)N[C@H]1CC[C@H](Cn2nc(C(F)(F)F)cc2C)CC1 [Example 22.7, Trans-5-Chloro-2-methyl-N-[4-(5-methyl-3-trifluoromethyl-pyrazol-1-ylmethyl)-cyclohexyl]-nicotinamide]
17 | 84 nM | COc1ncc(C)cc1NC[C@H]1CC[C@H](NC(=O)c2cc(C(F)(F)F)ccc2Cl)CC1 [Example 19.56, Trans-2-chloro-N-(4-((2-methoxy-5-methylpyridin-3-ylamino)methyl)cyclohexyl)-5-(trifluoromethyl) benzamide]
18 | 59 nM | O=C(N[C@H]1CC[C@H](CNc2n[nH]cc2-c2ccccc2)CC1)c1cc(C(F)(F)F)ccc1Cl [Example 19.94, Trans-2-chloro-N-(4-((4-phenyl-1H-pyrazol-3-ylamino)methyl)cyclohexyl)-5-(trifluoromethyl) benzamide]

The next lines start with the compound.

Row | SMILES | IC50
19 | O=C(N[C@H]1CC[C@H](CNc2ccccc2Cl)CC1)c1cc(C(F)(F)F)ccc1Cl [Example 2.26, Trans-2-Chloro-N-{4-[(2-chloro-phenylamino)-methyl]-cyclohexyl}-5-trifluoromethyl-benzamide] | 63 nM
20 | O=C(N[C@H]1CC[C@H](CNc2cccnc2)CC1)c1cc(C(F)(F)F)ccc1Cl [Example 4.21, Trans-2-Chloro-N-[4-(pyridin-3-ylaminomethyl)-cyclohexyl]-5-trifluoromethyl-benzamide] | 76 nM
21 | O=C(N[C@H]1CC[C@H](CNc2cc(-c3ccc(F)cc3)n[nH]2)CC1)c1cc(C(F)(F)F)ccc1Cl [Example 4.11, Trans-2-Chloro-N-(4-{[5-(4-fluoro-phenyl)-2H-pyrazol-3-ylamino]-methyl}-cyclohexyl)-5-trifluoromethyl-benzamide] | 61 nM
22 | O=C(N[C@H]1CC[C@H](CNc2cccc3ncccc23)CC1)c1cccc(C(F)(F)F)c1 [Example 13, Trans-N-[4-(Quinolin-5-ylaminomethyl)-cyclohexyl]-3-trifluoromethyl-benzamide] | 70 nM
23 | Cc1ncc(Cl)cc1C(=O)N[C@H]1CC[C@H](Cn2nc(C)c(Cl)c2C)CC1 [Example 17, Trans-5-Chloro-N-[4-(4-chloro-3,5-dimethyl-pyrazol-1-ylmethyl)-cyclohexyl]-2-methyl-nicotinamide] | 70 nM
24 | Cc1ncccc1NC[C@H]1CC[C@H](NC(=O)c2cc(C(F)(F)F)ccc2Cl)CC1 [Example 1.13, Trans-2-Chloro-N-{4-[(2-methyl-pyridin-3-ylamino)-methyl]-cyclohexyl}-5-trifluoromethyl-benzamide] | 19 nM
25 | O=C(O)c1ccc(NC[C@H]2CC[C@H](NC(=O)c3cc(C(F)(F)F)ccc3Cl)CC2)nc1 [Example 1.33, Trans-6-{[4-(2-Chloro-5-trifluoromethyl-benzoylamino)-cyclohexylmethyl]-amino}-nicotinic acid] | 6420 nM
26 | O=C(N[C@H]1CC[C@H](CNc2ccccc2)CC1)c1cc(C(F)(F)F)ccc1Cl [Example 4.33, Trans-2-Chloro-N-(4-phenylaminomethyl-cyclohexyl)-5-trifluoromethyl-benzamide] | 50 nM
